Test results reported in patent publication US11753407B2, “Compounds for treating spinal muscular atrophy” (PTC Therapeutics, Inc., priority 2012, dated 2023).

How the values were obtained:
[1] = test system: SMN2 minigene mRNA (SMN2-A minigene) in HEK293H cells; assay: SMN2 minigene mRNA splicing RT-qPCR assay in cultured cells; format: cell-based, human; details: Homo sapiens, HEK293-H; concentration increasing full length SMN2 mRNA 1.5-fold relative to vehicle-treated cells; HEK293H cells with SMN2-A minigene, 24 hours, 7-point concentration data; read-out: EC1.5x for production of full length SMN2 mRNA
Method in brief: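 HEK293H cells stably carrying the SMN2-A minigene were treated for 24 h at 37 °C with a 7-point, 3.16-fold dilution series of compound. Multiplex RT-qPCR measured exon 7-containing minigene FL mRNA against GAPDH, expressed relative to vehicle by modified ΔΔCt; the EC1.5× is the concentration giving a 1.5-fold increase.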

[2] = test system: Smn protein in SMA patient fibroblast cells (GM03813); assay: Smn protein assay in cultured cells (SMN HTRF); format: cell-based, human; details: SMA patient fibroblast cells, 48 hours; for EC1.5x for Smn protein expression: 7-point concentration curve, SMN HTRF, concentration producing 1.5 times Smn protein vs DMSO vehicle control; for maximum fold (Fold) increase of Smn protein: 7-point concentration data, fold relative to vehicle control
Method in brief: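 SMA patient fibroblasts (5,000 cells/well, DMEM-10% FBS) were treated for 48 h at 37 °C with a 7-point, 3.16-fold dilution series in triplicate. RIPA lysates were probed by HTRF (anti-SMN d2/kryptate, overnight, room temperature), reading 665/620 nm. EC1.5× is the concentration giving 1.5-fold Smn over DMSO vehicle.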

Compound: CCc1nc(C)cn2nc(-c3cc(=O)n4cc(N5CCC(N(CC)CC)CC5)ccc4n3)cc12 [Compound 551, 7-[4-(diethylamino)piperidin-1-yl]-2-(4-ethyl-6-methylpyrazolo[1,5-a]pyrazin-2-yl)-4H-pyrido[1,2-a]pyrimidin-4-one]
- EC (1.5-fold increase) [1]: 0.1 to 0.3 µM
- EC1.5x for Smn protein expression [2]: **** (an EC1.5x≤0.3 μM is indicated by four stars (****))
- maximum fold (Fold) increase of Smn protein [2]: ***** (a fold increase >1.65 is indicated by five stars (*****))
- melting point: 232 to 235 °C

Compound: C[C@@H]1CN(c2ccc3nc(-c4ccc5c(cnn5C)c4)cc(=O)n3c2)C[C@H](C)N1 [Compound 552, 7-[(3R,5S)-3,5-dimethylpiperazin-1-yl]-2-(1-methyl-1H-indazol-5-yl)-4H-pyrido[1,2-a]pyrimidin-4-one]
- EC (1.5-fold increase) [1]: 0.3 to 1 µM
- EC1.5x for Smn protein expression [2]: *** (an EC1.5× between >0.3 μM and ≤1 μM is indicated by three stars (***))
- maximum fold (Fold) increase of Smn protein [2]: **** (a fold increase between >1.5 and ≤1.65 is indicated by four stars (****))
- melting point: 240 to 242 °C

Compound: C[C@H]1CN(c2ccc3nc(-c4ccc5c(cnn5C)c4)cc(=O)n3c2)CCN1 [Compound 553, 2-(1-methyl-1H-indazol-5-yl)-7-[(3S)-3-methylpiperazin-1-yl]-4H-pyrido[1,2-a]pyrimidin-4-one]
- EC (1.5-fold increase) [1]: 0.1 to 0.3 µM
- EC1.5x for Smn protein expression [2]: **** (an EC1.5x≤0.3 μM is indicated by four stars (****))
- maximum fold (Fold) increase of Smn protein [2]: ***** (a fold increase >1.65 is indicated by five stars (*****))
- melting point: 206 to 208 °C

Compound: Cc1cn2cc(-c3cc(=O)n4cc(C5CCN(C(C)C)CC5)ccc4n3)ccc2n1 [Compound 554, 2-(2-methylimidazo[1,2-a]pyridin-6-yl)-7-[1-(propan-2-yl)piperidin-4-yl]-4H-pyrido[1,2-a]pyrimidin-4-one]
- EC (1.5-fold increase) [1]: 0.1 to 0.3 µM
- EC1.5x for Smn protein expression [2]: **** (an EC1.5x≤0.3 μM is indicated by four stars (****))
- maximum fold (Fold) increase of Smn protein [2]: ***** (a fold increase >1.65 is indicated by five stars (*****))
- melting point: 218 to 220 °C

Compound: Cc1cn2ccc(-c3cc(=O)n4cc(N5CCNCC5)ccc4n3)cc2n1 [Compound 555, 2-(2-methylimidazo[1,2-a]pyridin-7-yl)-7-(piperazin-1-yl)-4H-pyrido[1,2-a]pyrimidin-4-one]
- EC (1.5-fold increase) [1]: 1 to 3 µM
- EC1.5x for Smn protein expression [2]: ** (an EC1.5× between >1 μM and ≤3 μM is indicated by two stars (**))
- maximum fold (Fold) increase of Smn protein [2]: *** (a fold increase between >1.35 and ≤1.5 is indicated by three stars (***))
- melting point: 272 to 277 °C

Compound: Cc1cn2ccc(-c3cc(=O)n4cc(C5CCNCC5)ccc4n3)cc2n1 [Compound 556, 2-(2-methylimidazo[1,2-a]pyridin-7-yl)-7-(piperidin-4-yl)-4H-pyrido[1,2-a]pyrimidin-4-one]
- EC (1.5-fold increase) [1]: 0.3 to 1 µM
- EC1.5x for Smn protein expression [2]: ** (an EC1.5× between >1 μM and ≤3 μM is indicated by two stars (**))
- maximum fold (Fold) increase of Smn protein [2]: *** (a fold increase between >1.35 and ≤1.5 is indicated by three stars (***))
- melting point: 257 to 260 °C

Compound: Cc1cn2ccc(-c3cc(=O)n4cc(N5CCN(C)CC5)ccc4n3)cc2n1 [Compound 557, 2-(2-methylimidazo[1,2-a]pyridin-7-yl)-7-(4-methylpiperazin-1-yl)-4H-pyrido[1,2-a]pyrimidin-4-one]
- EC (1.5-fold increase) [1]: 1 to 3 µM
- maximum fold (Fold) increase of Smn protein [2]: * (A maximum fold increase of ≤1.2 is indicated by one star (*))
- melting point: 285 to 288 °C

Compound: CCN1CCN(c2ccc3nc(-c4ccn5cc(C)nc5c4)cc(=O)n3c2)CC1 [Compound 558, 7-(4-ethylpiperazin-1-yl)-2-(2-methylimidazo[1,2-a]pyridin-7-yl)-4H-pyrido[1,2-a]pyrimidin-4-one]
- EC (1.5-fold increase) [1]: 1 to 3 µM
- maximum fold (Fold) increase of Smn protein [2]: ** (a fold increase between >1.2 and ≤1.35 is indicated by two stars (**))
- melting point: 219 to 222 °C

Compound: Cc1cn2ccc(-c3cc(=O)n4cc(C5CCN(C)CC5)ccc4n3)cc2n1 [Compound 559, 2-(2-methylimidazo[1,2-a]pyridin-7-yl)-7-(1-methylpiperidin-4-yl)-4H-pyrido[1,2-a]pyrimidin-4-one]
- EC (1.5-fold increase) [1]: 1 to 3 µM
- maximum fold (Fold) increase of Smn protein [2]: * (A maximum fold increase of ≤1.2 is indicated by one star (*))
- melting point: 255 to 260 °C

Compound: CCN1CCC(c2ccc3nc(-c4ccn5cc(C)nc5c4)cc(=O)n3c2)CC1 [Compound 560, 7-(1-ethylpiperidin-4-yl)-2-(2-methylimidazo[1,2-a]pyridin-7-yl)-4H-pyrido[1,2-a]pyrimidin-4-one]
- EC (1.5-fold increase) [1]: 1 to 3 µM
- maximum fold (Fold) increase of Smn protein [2]: * (A maximum fold increase of ≤1.2 is indicated by one star (*))
- melting point: 229 to 233 °C

Compound: Cc1cn2nc(-c3cc(=O)n4cc(N5CCN[C@@H](C)C5)cc(C)c4n3)cc2c(C)n1 [Compound 561, 2-(4,6-dimethylpyrazolo[1,5-a]pyrazin-2-yl)-9-methyl-7-[(3S)-3-methylpiperazin-1-yl]-4H-pyrido[1,2-a]pyrimidin-4-one]
- EC (1.5-fold increase) [1]: < 0.1 µM
- EC1.5x for Smn protein expression [2]: **** (an EC1.5x≤0.3 μM is indicated by four stars (****))
- maximum fold (Fold) increase of Smn protein [2]: **** (a fold increase between >1.5 and ≤1.65 is indicated by four stars (****))
- melting point: 210 to 219 °C

Compound: Cc1cn2nc(-c3cc(=O)n4cc(N5C[C@@H](C)N[C@@H](C)C5)cc(C)c4n3)cc2c(C)n1 [Compound 562, 7-[(3R,5S)-3,5-dimethylpiperazin-1-yl]-2-(4,6-dimethylpyrazolo[1,5-a]pyrazin-2-yl)-9-methyl-4H-pyrido[1,2-a]pyrimidin-4-one]
- EC (1.5-fold increase) [1]: 0.3 to 1 µM
- maximum fold (Fold) increase of Smn protein [2]: ** (a fold increase between >1.2 and ≤1.35 is indicated by two stars (**))
- melting point: 273 to 283 °C

Compound: Cc1cn2nc(-c3cc(=O)n4cc(N5CCN(C)[C@@H](C)C5)cc(C)c4n3)cc2c(C)n1 [Compound 563, 7-[(3S)-3,4-dimethylpiperazin-1-yl]-2-(4,6-dimethylpyrazolo[1,5-a]pyrazin-2-yl)-9-methyl-4H-pyrido[1,2-a]pyrimidin-4-one]
- EC (1.5-fold increase) [1]: 0.1 to 0.3 µM
- EC1.5x for Smn protein expression [2]: **** (an EC1.5x≤0.3 μM is indicated by four stars (****))
- maximum fold (Fold) increase of Smn protein [2]: ***** (a fold increase >1.65 is indicated by five stars (*****))
- melting point: 244 to 253 °C

Compound: Cc1cn2nc(-c3cc(=O)n4cc(N5C[C@@H](C)N(C)[C@@H](C)C5)cc(C)c4n3)cc2c(C)n1 [Compound 564, 2-(4,6-dimethylpyrazolo[1,5-a]pyrazin-2-yl)-9-methyl-7-[(3R,5S)-3,4,5-trimethylpiperazin-1-yl]-4H-pyrido[1,2-a]pyrimidin-4-one]
- EC (1.5-fold increase) [1]: 1 to 3 µM
- maximum fold (Fold) increase of Smn protein [2]: * (A maximum fold increase of ≤1.2 is indicated by one star (*))
- melting point: 297 to 310 °C

Compound: Cc1cn2cc(-c3cc(=O)n4cc(C5=CCN(C(C)C)CC5)ccc4n3)ccc2n1 [Compound 565, 2-(2-methylimidazo[1,2-a]pyridin-6-yl)-7-[1-(propan-2-yl)-1,2,3,6-tetrahydropyridin-4-yl]-4H-pyrido[1,2-a]pyrimidin-4-one]
- EC (1.5-fold increase) [1]: < 0.1 µM
- EC1.5x for Smn protein expression [2]: *** (an EC1.5× between >0.3 μM and ≤1 μM is indicated by three stars (***))
- maximum fold (Fold) increase of Smn protein [2]: **** (a fold increase between >1.5 and ≤1.65 is indicated by four stars (****))
- melting point: 230 to 232 °C
